Measurements as given in article PMC11579512, “Deoxybouvardin-glucoside induces apoptosis in non-small cell lung cancer cells by targeting EGFR/MET and AKT signaling pathway” (EXCLI Journal, 2024).

Tests used:
[1] = biological target: T1, EGFR (Homo sapiens, UniProt P00533); assay: In vitro ADP-Glo kinase assay, EGFR; assay type: biochemical
T1 construct: purchased Promega
Protocol: Subsequently, each well was added with ADP-Glo reagent and incubated for another 40 min. After completion of the kinase reaction, each well was added with kinase activity detection reagent and then incubated for 30 min. Liquid was dispensed with I.DOT (Dispendix, Stuttgart, Germany). Luminescence was measured on a Centro LB 960 microplate luminometer (Berthold Technologies).

[2] = tested on: HCC827 cells; assay: Intracellular ROS (Muse Oxidative Stress Kit), HCC827; assay type: cell-based, human; conditions: 48 h, control 7.32 %
Protocol: (§1) HaCaT cells were grown in DMEM, whereas HCC827 and HCC827GR cells were grown in RPMI 1640. All culture media were supplemented with FBS (10 %) and P/S (1 %), and the cells were grown at 37 °C in 5 % CO2.
The levels of intracellular ROS were measured using a Muse™ Oxidative Stress Kit (MCH100111, Merck Millipore) in accordance with the manufacturer's instructions. The cells were incubated with a Muse™ Oxidative Stress Reagent working solution in the dark at 37 °C for 30 min. Intracellular ROS generation was measured using a Muse™ Cell Analyzer.

[3] = tested on: Bcl-2; assay: Immunoblot Bcl-2 in HCC827 and HCC827GR cells; assay type: cell-based, human; conditions: for BCl-2 protein Ratio: DBG 0 nM = 1.00
Protocol: as §1
(§2) Cells were lysed in RIPA buffer, and protein concentration was determined using a Bio-Rad DC Protein Assay kit (Bio-Rad, Hercules, CA, USA). Protein samples from the cell lysates were resolved by sodium dodecyl sulfate-polyacrylamide gel electrophoresis and then transferred onto polyvinylidene fluoride membranes. The membranes were blocked with 3 % or 5 % skim milk and then incubated at 4 °C overnight with the indicated primary antibodies, followed by the corresponding horseradish peroxidase-conjugated secondary antibodies at RT for 2 h. Protein bands were visualized using western blotting luminol reagent solution and ImageQuant LAS 500 (GE Healthcare, Uppsala, Sweden). The density of the bands was quantified using ImageJ software (NIH, Bethesda, MD, USA).

[4] = tested on: Bad; assay: Immunoblot Bad in HCC827 and HCC827GR cells; assay type: cell-based, human
Protocol: as §1, §2

[5] = tested on: caspase-3; assay: Immunoblot caspase-3 in HCC827 and HCC827GR cells; assay type: cell-based, human; conditions: for caspase3 protein Ratio: DBG 0 nM = 1.00
Protocol: as §1, §2

[6] = tested on: HCC827GR cells; assay: Multi-caspase assay, HCC827GR; assay type: cell-based, human; parameters: Caspase+ cells / Total Caspase+ cells / dead cells (multi-caspase assay) / Live cells (multi-caspase assay): unit not given here; conditions: for cells with activated caspases: 48 h, background 6.43 %; for Caspase+ cells / Caspase+/dead cells / Live cells (multi-caspase assay) / Total Caspase+ cells / dead cells (multi-caspase assay): HCC827GR
Protocol: as §1

T1 sequence (P00533 25-1210): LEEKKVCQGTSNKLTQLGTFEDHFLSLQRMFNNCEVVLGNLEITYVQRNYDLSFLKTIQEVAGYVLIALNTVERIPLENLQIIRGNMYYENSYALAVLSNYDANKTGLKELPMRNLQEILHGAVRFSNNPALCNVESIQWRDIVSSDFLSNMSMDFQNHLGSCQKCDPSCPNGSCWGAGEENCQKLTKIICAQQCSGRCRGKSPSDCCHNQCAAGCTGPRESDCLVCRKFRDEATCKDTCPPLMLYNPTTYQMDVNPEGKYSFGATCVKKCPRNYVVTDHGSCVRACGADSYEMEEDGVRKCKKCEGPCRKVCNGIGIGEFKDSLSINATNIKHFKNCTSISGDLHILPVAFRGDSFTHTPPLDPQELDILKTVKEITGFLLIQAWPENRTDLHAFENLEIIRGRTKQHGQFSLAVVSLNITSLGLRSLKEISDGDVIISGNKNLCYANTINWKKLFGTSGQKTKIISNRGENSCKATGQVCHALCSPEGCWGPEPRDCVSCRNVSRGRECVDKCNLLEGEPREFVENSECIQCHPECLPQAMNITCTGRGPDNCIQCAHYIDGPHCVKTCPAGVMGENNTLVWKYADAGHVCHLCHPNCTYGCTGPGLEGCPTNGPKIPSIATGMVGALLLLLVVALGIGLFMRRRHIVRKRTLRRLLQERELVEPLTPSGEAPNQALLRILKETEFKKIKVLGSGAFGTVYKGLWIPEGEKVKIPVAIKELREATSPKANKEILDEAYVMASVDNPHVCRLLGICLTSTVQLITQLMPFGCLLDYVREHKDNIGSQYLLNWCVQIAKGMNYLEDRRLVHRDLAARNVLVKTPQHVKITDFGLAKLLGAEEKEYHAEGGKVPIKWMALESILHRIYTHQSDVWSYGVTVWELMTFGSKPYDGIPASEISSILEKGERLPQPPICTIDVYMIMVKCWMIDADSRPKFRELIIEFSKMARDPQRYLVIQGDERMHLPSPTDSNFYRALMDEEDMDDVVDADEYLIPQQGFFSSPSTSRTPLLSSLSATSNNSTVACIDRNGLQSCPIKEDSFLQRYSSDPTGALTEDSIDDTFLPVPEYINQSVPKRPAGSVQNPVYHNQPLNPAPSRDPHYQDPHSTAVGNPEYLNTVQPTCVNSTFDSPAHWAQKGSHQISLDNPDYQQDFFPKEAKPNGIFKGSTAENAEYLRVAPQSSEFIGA

SMILES: COc1ccc(C[C@H]2C(=O)N[C@@H](C)C(=O)N(C)[C@H]3Cc4ccc(cc4)Oc4cc(ccc4O[C@@H]4O[C@H](CO)[C@@H](O)[C@H](O)[C@H]4O)C[C@@H](C(=O)N[C@H](C)C(=O)N[C@@H](C)C(=O)N2C)N(C)C3=O)cc1 [DBG, deoxybouvardin glucoside]
- IC50 ([1]; ADP-Glo, EGFR 4 ng, RT, 60 min, luminescence, n=3): 7.23 nM
- kinase activity, in words ([1]; DBG 3, 6, 12 nM): significantly inhibited
- ROS level ([2]; DBG 3 nM): 18.40%
- ROS level ([2]; DBG 6 nM): 47.32%
- ROS level ([2]; DBG 12 nM): 70.22%
- BCl-2 protein/actin ([3]; HCC827, DBG 3 nM, DBG 0 nM 0.55): 0.30
- BCl-2 protein Ratio ([3]; HCC827, DBG 3 nM): 0.55
- BCl-2 protein/actin ([3]; HCC827, DBG 6 nM, DBG 0 nM 0.55): 0.21
- BCl-2 protein Ratio ([3]; HCC827, DBG 6 nM): 0.39
- BCl-2 protein/actin ([3]; HCC827, DBG 12 nM, DBG 0 nM 0.55): 0.19
- BCl-2 protein Ratio ([3]; HCC827, DBG 12 nM): 0.36
- BCl-2 protein/actin ([3]; HCC827GR, DBG 3 nM, DBG 0 nM 0.66): 0.59
- BCl-2 protein Ratio ([3]; HCC827GR, DBG 3 nM): 0.89
- BCl-2 protein/actin ([3]; HCC827GR, DBG 6 nM, DBG 0 nM 0.66): 0.47
- BCl-2 protein Ratio ([3]; HCC827GR, DBG 6 nM): 0.70
- BCl-2 protein/actin ([3]; HCC827GR, DBG 12 nM, DBG 0 nM 0.66): 0.19
- BCl-2 protein Ratio ([3]; HCC827GR, DBG 12 nM): 0.29
- level of Bcl-2 ([3]; NSCLC cells, DBG): downregulated
- Bad protein/actin ([4]; HCC827, DBG 3 nM, DBG 0 nM 0.16): 0.25
- Bad protein Ratio ([4]; HCC827, DBG 3 nM, relative to DBG 12 nM = 1.00, DBG 0 nM 0.19): 0.31
- Bad protein/actin ([4]; HCC827, DBG 6 nM, DBG 0 nM 0.16): 0.69
- Bad protein Ratio ([4]; HCC827, DBG 6 nM, relative to DBG 12 nM = 1.00, DBG 0 nM 0.19): 0.84
- Bad protein Ratio ([4]; HCC827, DBG 12 nM (reference of the ratio, 1.00), DBG 0 nM 0.19): 1.00
- Bad protein/actin ([4]; HCC827, DBG 12 nM, DBG 0 nM 0.16): 0.82
- Bad protein/actin ([4]; HCC827GR, DBG 3 nM, DBG 0 nM 0.28): 0.22
- Bad protein Ratio ([4]; HCC827GR, DBG 3 nM, relative to DBG 12 nM = 1.00, DBG 0 nM 0.49): 0.39
- Bad protein/actin ([4]; HCC827GR, DBG 6 nM, DBG 0 nM 0.28): 0.59
- Bad protein Ratio ([4]; HCC827GR, DBG 6 nM, relative to DBG 12 nM = 1.00, DBG 0 nM 0.49): 1.03
- Bad protein Ratio ([4]; HCC827GR, DBG 12 nM (reference of the ratio, 1.00), DBG 0 nM 0.49): 1.00
- Bad protein/actin ([4]; HCC827GR, DBG 12 nM, DBG 0 nM 0.28): 0.57
- level of Bad ([4]; NSCLC cells, DBG): increased
- caspase3 protein/actin ([5]; HCC827, DBG 3 nM, DBG 0 nM 0.88): 0.62
- caspase3 protein Ratio ([5]; HCC827, DBG 3 nM): 0.71
- caspase3 protein/actin ([5]; HCC827, DBG 6 nM, DBG 0 nM 0.88): 0.55
- caspase3 protein Ratio ([5]; HCC827, DBG 6 nM): 0.62
- caspase3 protein/actin ([5]; HCC827, DBG 12 nM, DBG 0 nM 0.88): 0.14
- caspase3 protein Ratio ([5]; HCC827, DBG 12 nM): 0.16
- caspase3 protein/actin ([5]; HCC827GR, DBG 3 nM, DBG 0 nM 0.55): 0.60
- caspase3 protein Ratio ([5]; HCC827GR, DBG 3 nM): 1.11
- caspase3 protein/actin ([5]; HCC827GR, DBG 6 nM, DBG 0 nM 0.55): 0.48
- caspase3 protein Ratio ([5]; HCC827GR, DBG 6 nM): 0.87
- caspase3 protein/actin ([5]; HCC827GR, DBG 12 nM, DBG 0 nM 0.55): 0.30
- caspase3 protein Ratio ([5]; HCC827GR, DBG 12 nM): 0.54
- level of whole caspase-3 ([5]; HCC827 and HCC827GR, DBG): decreased
- cells with activated caspases ([6]; DBG 3 nM): 23.91%
- cells with activated caspases ([6]; DBG 6 nM): 31.13%
- cells with activated caspases ([6]; DBG 12 nM): 33.34%
- Caspase+ cells ([6]; DBG 3 nM, mean of samples 1-3): 8.71
- Caspase+/dead cells ([6]; DBG 3 nM, mean of samples 1-3): 15.20
- Live cells (multi-caspase assay) ([6]; DBG 3 nM, mean of samples 1-3): 74.50
- Total Caspase+ cells ([6]; DBG 3 nM, mean of samples 1-3): 23.91
- dead cells (multi-caspase assay) ([6]; DBG 3 nM, mean of samples 1-3): 1.60
- Caspase+ cells ([6]; DBG 3 nM, sample 1): 8.78
- Caspase+/dead cells ([6]; DBG 3 nM, sample 1): 15.95
- Live cells (multi-caspase assay) ([6]; DBG 3 nM, sample 1): 73.93
- Total Caspase+ cells ([6]; DBG 3 nM, sample 1): 24.73
- dead cells (multi-caspase assay) ([6]; DBG 3 nM, sample 1): 1.34
- Caspase+ cells ([6]; DBG 3 nM, sample 2): 8.19
- Caspase+/dead cells ([6]; DBG 3 nM, sample 2): 14.57
- Live cells (multi-caspase assay) ([6]; DBG 3 nM, sample 2): 75.49
- Total Caspase+ cells ([6]; DBG 3 nM, sample 2): 22.76
- dead cells (multi-caspase assay) ([6]; DBG 3 nM, sample 2): 1.75
- Caspase+ cells ([6]; DBG 3 nM, sample 3): 9.16
- Caspase+/dead cells ([6]; DBG 3 nM, sample 3): 15.07
- Live cells (multi-caspase assay) ([6]; DBG 3 nM, sample 3): 74.07
- Total Caspase+ cells ([6]; DBG 3 nM, sample 3): 24.23
- dead cells (multi-caspase assay) ([6]; DBG 3 nM, sample 3): 1.70
- Caspase+ cells ([6]; DBG 6 nM, mean of samples 1-3): 7.98
- Caspase+/dead cells ([6]; DBG 6 nM, mean of samples 1-3): 23.15
- Live cells (multi-caspase assay) ([6]; DBG 6 nM, mean of samples 1-3): 67.79
- Total Caspase+ cells ([6]; DBG 6 nM, mean of samples 1-3): 31.13
- dead cells (multi-caspase assay) ([6]; DBG 6 nM, mean of samples 1-3): 1.08
- Caspase+ cells ([6]; DBG 6 nM, sample 1): 7.79
- Caspase+/dead cells ([6]; DBG 6 nM, sample 1): 23.36
- Live cells (multi-caspase assay) ([6]; DBG 6 nM, sample 1): 67.58
- Total Caspase+ cells ([6]; DBG 6 nM, sample 1): 31.15
- dead cells (multi-caspase assay) ([6]; DBG 6 nM, sample 1): 1.27
- Caspase+ cells ([6]; DBG 6 nM, sample 2): 7.88
- Caspase+/dead cells ([6]; DBG 6 nM, sample 2): 23.02
- Live cells (multi-caspase assay) ([6]; DBG 6 nM, sample 2): 67.97
- Total Caspase+ cells ([6]; DBG 6 nM, sample 2): 30.90
- dead cells (multi-caspase assay) ([6]; DBG 6 nM, sample 2): 1.13
- Caspase+ cells ([6]; DBG 6 nM, sample 3): 8.26
- Caspase+/dead cells ([6]; DBG 6 nM, sample 3): 23.08
- Live cells (multi-caspase assay) ([6]; DBG 6 nM, sample 3): 67.82
- Total Caspase+ cells ([6]; DBG 6 nM, sample 3): 31.34
- dead cells (multi-caspase assay) ([6]; DBG 6 nM, sample 3): 0.83
- Caspase+ cells ([6]; DBG 12 nM, mean of samples 1-3): 9.57
- Caspase+/dead cells ([6]; DBG 12 nM, mean of samples 1-3): 23.77
- Live cells (multi-caspase assay) ([6]; DBG 12 nM, mean of samples 1-3): 66.05
- Total Caspase+ cells ([6]; DBG 12 nM, mean of samples 1-3): 33.34
- dead cells (multi-caspase assay) ([6]; DBG 12 nM, mean of samples 1-3): 0.61
- Caspase+ cells ([6]; DBG 12 nM, sample 1): 11.11
- Caspase+/dead cells ([6]; DBG 12 nM, sample 1): 21.58
- Live cells (multi-caspase assay) ([6]; DBG 12 nM, sample 1): 67.07
- Total Caspase+ cells ([6]; DBG 12 nM, sample 1): 32.69
- dead cells (multi-caspase assay) ([6]; DBG 12 nM, sample 1): 0.24
- Caspase+ cells ([6]; DBG 12 nM, sample 2): 10.36
- Caspase+/dead cells ([6]; DBG 12 nM, sample 2): 24.35
- Live cells (multi-caspase assay) ([6]; DBG 12 nM, sample 2): 65.05
- Total Caspase+ cells ([6]; DBG 12 nM, sample 2): 34.70
- dead cells (multi-caspase assay) ([6]; DBG 12 nM, sample 2): 0.24
- Caspase+ cells ([6]; DBG 12 nM, sample 3): 7.24
- Caspase+/dead cells ([6]; DBG 12 nM, sample 3): 25.38
- Live cells (multi-caspase assay) ([6]; DBG 12 nM, sample 3): 66.02
- Total Caspase+ cells ([6]; DBG 12 nM, sample 3): 32.62
- dead cells (multi-caspase assay) ([6]; DBG 12 nM, sample 3): 1.36
